Source: patent US8927718B2, “Fused heterocyclic ring derivative and use thereof” (Takeda Pharmaceutical Company Limited, priority 2009, dated 2015)

Biological target: T1, Smo (Mus musculus, UniProt P56726)
T1 construct: endogenous in cells; host or cells: NIH-3T3 cells stably carrying the Gli luciferase reporter
Test: Gli reporter luciferase assay in NIH-3T3/Gli reporter cells stimulated with mouse Shh-N end fragment
Type: cell-based
Conditions: NIH3T3, 1 μM compound, mouse Shh-N end fragment supernatant, 48 hr, luciferase activity, control without compound as 100, read-out: inhibitory rate (%) at 1 μM
Method: Gli reporter plasmid was constructed by inserting 8× Gli-binding site and chicken δ-crystalline promoter into the upstream of luc+ of pGL3 (Promega).
HEK293 cells were grown in D-MEM medium (Invitrogen) containing 10% fetal bovine serum in a 10 cm dish and pcDNA3.1/mShh-N was introduced into the cells using FuGENE6 (Roche Applied Science). Thereafter, the HEK293 cells were cultured in a carbon dioxide gas incubator at 37° C. for 24 hours, and the medium was exchanged with D-MEM medium (Invitrogen) containing 2% fetal bovine serum. After culturing for 48 hr, a culture supernatant containing recombinant type mouse Shh-N end fragment was obtained by filtration using a filter ([…]).
Using D-MEM (Invitrogen) containing 10% fetal bovine serum, expression plasmid pcDNA3.1 and Gli reporter plasmid (pGL3/δ-cry promoter, 8× Gli binding site) produced by the method of Experimental Example 1 were introduced into NIH-3T3 cells grown in a 10 cm dish by the use of FuGENE6 (Roche Applied Science).
After culture for 24 hr, the cells were recovered, suspended in D-MEM medium containing 10% fetal bovine serum and supplemented with Geneticin (Life Technologies Oriental, Inc.) to a final concentration of 500 μg/ml, diluted to 10^4 cells/ml, plated on a 96 well plate, and cultured in a carbon dioxide gas incubator at 37° C. to give Geneticin resistant transformed cell line. […]
NIH-3T3/Gli reporter cells cultured in D-MEM (Invitrogen) containing 10% fetal bovine serum were plated in a 96 well white plate at 1×10^4 cells/well, and cultured overnight in a carbon dioxide gas incubator at 37° C. […] Bright-Glo (Promega, 50 μl) was added, and the mixture was stirred, after which luciferase activity was measured by EnVision (PerkinElmer). The inhibition rate was calculated based on the luciferase activity of the control without addition of the compound as 100.

T1 sequence (P56726 33-793): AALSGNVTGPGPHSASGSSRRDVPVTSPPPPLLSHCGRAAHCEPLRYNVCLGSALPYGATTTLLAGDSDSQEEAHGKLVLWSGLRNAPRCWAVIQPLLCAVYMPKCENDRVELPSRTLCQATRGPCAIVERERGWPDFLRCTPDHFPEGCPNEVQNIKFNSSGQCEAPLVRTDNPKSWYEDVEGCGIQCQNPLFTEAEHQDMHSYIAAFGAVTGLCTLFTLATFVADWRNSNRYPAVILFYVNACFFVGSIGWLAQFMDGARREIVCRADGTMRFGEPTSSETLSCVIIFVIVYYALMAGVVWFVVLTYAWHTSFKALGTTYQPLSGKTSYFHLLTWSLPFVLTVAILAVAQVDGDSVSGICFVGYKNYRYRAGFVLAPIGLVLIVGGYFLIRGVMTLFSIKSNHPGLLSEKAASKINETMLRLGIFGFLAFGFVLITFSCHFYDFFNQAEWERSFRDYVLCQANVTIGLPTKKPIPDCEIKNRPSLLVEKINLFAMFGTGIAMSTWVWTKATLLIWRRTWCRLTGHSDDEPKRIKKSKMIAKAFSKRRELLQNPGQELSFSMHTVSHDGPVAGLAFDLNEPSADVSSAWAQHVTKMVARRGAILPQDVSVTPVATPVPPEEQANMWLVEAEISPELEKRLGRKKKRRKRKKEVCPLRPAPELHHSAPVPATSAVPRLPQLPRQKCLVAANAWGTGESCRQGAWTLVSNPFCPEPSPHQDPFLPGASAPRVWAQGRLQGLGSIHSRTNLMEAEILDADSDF

inhibition at 1 µM | Structure (SMILES)
100% | CCc1c(C(=O)NC2CCN(C(=O)CO)CC2)n(C)c2cc(CC)n(CC(=O)c3ccccc3)c(=O)c12 [Example 1, 3,6-diethyl-N-[1-(hydroxyacetyl)piperidin-4-yl]-1-methyl-4-oxo-5-(2-oxo-2-phenylethyl)-4,5-dihydro-1H-pyrrolo[3,2-c]pyridine-2-carboxamide]
100% | C=Cc1c(C(=O)NC2CCN(C(=O)CO)CC2)n(C)c2cc(CC)n(CC(=O)c3ccccc3)c(=O)c12 [Example 2, 3-ethenyl-6-ethyl-N-[1-(hydroxyacetyl)piperidin-4-yl]-1-methyl-4-oxo-5-(2-oxo-2-phenylethyl)-4,5-dihydro-1H-pyrrolo[3,2-c]pyridine-2-carboxamide]
98% | CCNc1c(C(=O)NC2CCN(C(=O)CO)CC2)n(C)c2cc(CC)n(CC(=O)c3ccccc3)c(=O)c12 [Example 32, 6-ethyl-3-(ethylamino)-N-[1-(hydroxyacetyl)piperidin-4-yl]-1-methyl-4-oxo-5-(2-oxo-2-phenylethyl)-4,5-dihydro-1H-pyrrolo[3,2-c]pyridine-2-carboxamide]
